Here are results for 12 compounds from patent US8268865B2, “Quaternary alkyl ammonium bacterial efflux pump inhibitors and therapeutic uses thereof” (Rempex Pharmaceuticals, Inc., priority 2007, dated 2012).

Where two headings read alike, the source gives them in different places.

Series [1] has as its system P. aeruginosa strain PAM1723 overexpressing MexAB-OprM. The series can be described thus: Checkerboard assay: potentiation of in vitro antibacterial activity of levofloxacin by efflux pump inhibitors. Type of series: cell-based. The settings on record: for MPC8: lowest inhibitor concentration giving antibacterial activity with levofloxacin at 1/8 of its MIC; for MPC8 / MPC32: PAM1723, MHB, 20 h at 35° C.; for MPC32: lowest inhibitor concentration giving antibacterial activity with levofloxacin at 1/32 of its MIC. As for the experimental part:
EPI activity was recorded as concentration of an EPI compound that is necessary to increase susceptibility to levofloxacin of the strain of P. aeruginosa, PAM1723, overexpressing the MexAB-OprM efflux pump eight-fold. The levofloxacin potentiating activity of the test compounds was assessed by the checkerboard assay (Antimicrobial Combinations, Antibiotics in Laboratory Medicine, Ed. Victor Lorian, M.D., Fourth edition, 1996, pp 333-338, which is incorporated herein by reference in its entirety) using a broth microdilution method performed as recommended by the NCCLS (National Committee for Clinical Laboratory Standards (NCCLS), 1997, Methods for Dilution of Antimicrobial Susceptibility Tests for Bacteria That Grow Aerobically, Fourth Edition; Approved Standard. NCCLS Document M7-A4, Vol 17 No. 2, which is incorporated herein by reference in its entirety). In this assay, multiple dilutions of two drugs, namely an EPI and levofloxacin, were tested, alone and in combination, at concentrations equal to, above and below their respective minimal inhibitory concentrations (MICs). All EPI compounds were readily soluble in water and stock solutions were prepared at a final concentration of 10 mg/ml. Stock solutions were further diluted, according to the needs of the particular assay, in Mueller Hinton Broth (MHB). Stock solution was stored at −80° C.
The checkerboard assay was performed in microtiter plates. Levofloxacin was diluted in the x-axis, each column containing a single concentration of levofloxacin. EPIs were diluted in the y-axis, each row containing a single concentration of an EPI. The result of these manipulations was that each well of the microtiter plate contained a unique combination of concentrations of the two agents. The assay was performed in MHB with a final bacterial inoculum of 5×105 CFU/ml (from an early-log phase culture). Microtiter plates were incubated during 20 h at 35° C. and were read using a microtiterplate reader (Molecular Devices) at 650 nm as well as visual observation using a microtiter plate-reading mirror.
In the experiment depicted in Table 1, potentiating activities of selected inhibitors are reported as Minimum Potentiating Concentration MPC8 values (or MPC32) which correspond to the lowest concentration of the inhibitor required to achieve antibacterial activity in combination with the concentration of levofloxacin equal to ⅛ (or 1/32) of the levofloxacin concentration required to achieve the same antibacterial effect alone (MIC of levofloxacin).

A short description of series [2]: Rat serum pharmacokinetics after 1.5-hour IV infusion. In kind it is in vivo. The settings on record: for clearance: read-out: Clearance (free drug clearance) (converted). As for the experimental part:
In the experiment depicted in Table 2, rat serum pharmacokinetics of compounds selected inhibitor compounds was evaluated after 1.5-hour IV infusion of 1.5 ml solution of corresponding efflux pump inhibitor in 0.9% saline. Depending on the concentration used the total infused dose was 10 or 20 mg/kg. A two-compartment model was used to fit the data and calculate PK parameters.

Setting [3] is: rat serum, 1.5-hour IV infusion, dose 20 mg/kg, two-compartment model.
The mark [4] stands for this setting: rat serum, 1.5-hour IV infusion, dose 10 mg/kg, two-compartment model.
Where [5] appears, read: rat serum, 1.5-hour IV infusion, dose 10 mg/kg, read-out: Cmax.
Setting [6] is: rat serum, 1.5-hour IV infusion, dose 20 mg/kg, read-out: Cmax.
[7] abbreviates: rat, IV infusion, comparison among compounds of Table 2.

Turning to “3-[(2R)-2-[(4S)-1-N,1-N-bis(2-azaniumylethyl)-4-formamido-1-N-methylbutane-1,4-bis(aminium)]-4-phenylbutanamido]-1-{[4-(trifluoromethyl)phenyl]methyl}quinolin-1-ium pentachloride [Compound 53]”, in series [1], the MPC8 worked out at 2.5 µg/mL and the MPC32 was found to be 5 µg/mL.

For “3-{2-[(4S)-1-N,1-N-bis(2-azaniumylethyl)-4-(N-methylformamido)-1-N-(prop-2-en-1-yl)butane-1,4-bis(aminium)]-3-[4-(trifluoromethyl)phenyl]propanamido}quinolin-1-ium pentachloride [Compound 92]”, in series [1], the MPC8 came out at 0.312 µg/mL and the MPC32 turned out to be 0.625 µg/mL. Besides, the Cmax in series [2] (rat serum, 1.5-hour IV infusion, dose 20 mg/kg) is 18300 ng/mL. Besides, in series [2] (setting [3]), the “Clearance (free drug clearance)” value is 26.5 mL/min/kg.

As to `C[N+](C)(CCN)CCC[C@H](N)C(=O)N[C@H](CCc1ccccc1)C(=O)Nc1cnc2ccccc2c1` [Compound 4, 3-[(2S)-2-[(4R)-1-N-(2-azaniumylethyl)-4-formamido-1-N,1-N-dimethylbutane-1,4-bis(aminium)]-4-phenylbutanamido]quinolin-1-ium tetrachloride], in series [2] (setting [4]), the clearance was 21.5 mL/min/kg. The Cmax in series [2] (setting [5]) worked out at 13400 ng/mL.

Regarding `C[N+](C)(CCN)CCC[C@H](N)C(=O)N[C@H](CCc1ccccc1)C(=O)Nc1ccc(F)c(F)c1F` [Compound 5, [(4S)-4-azaniumyl-4-{[(1R)-3-phenyl-1-[(2,3,4-trifluorophenyl)carbamoyl]propyl]carbamoyl}butyl](2-azaniumylethyl)dimethylazanium trichloride], the clearance in series [2] (setting [3]) was 20.5 mL/min/kg. Besides, the Cmax in series [2] (setting [6]) stood at 19600 ng/mL.

Consider `C[N+](CCN)(CCN)CCC[C@H](N)C(=O)N[C@H](Cc1ccc(C(F)(F)F)cc1)C(=O)Nc1cnc2ccccc2c1` [Compound 10, 3-[(2R)-2-[(4S)-1-N,1-N-bis(2-azaniumylethyl)-4-formamido-1-N-methylbutane-1,4-bis(aminium)]-3-[4-(trifluoromethyl)phenyl]propanamido]quinolin-1-ium pentachloride], for which the “efflux pump inhibitory activity (in words)” value in series [1] (comparison among tested compounds) is “one of the best efflux pump inhibitory activities”. In addition, the clearance in series [2] (setting [4]) is 5.17 mL/min/kg. Further, the Cmax in series [2] (setting [5]) worked out at 30600 ng/mL. Moreover, in series [2] (setting [7]), the “free drug clearance (in words)” value is “lowest free drug clearance” and the “serum PK profile (in words)” value is on record as “best serum PK profiles”.

For the compound `C[N+](CCN)(CCN)CCC[C@H](N)C(=O)N[C@@H](Cc1ccc(C(F)(F)F)cc1)C(=O)Nc1cnc2ccccc2c1` [Compound 11, 3-[(2R)-2-[(4R)-1-N,1-N-bis(2-azaniumylethyl)-4-formamido-1-N-methylbutane-1,4-bis(aminium)]-3-[4-(trifluoromethyl)phenyl]propanamido]quinolin-1-ium pentachloride], in series [2] (setting [4]), the clearance was 47.8 mL/min/kg. Further, the Cmax in series [2] (setting [5]) stood at 7300 ng/mL.

In the case of `C[N+](CCN)(CCN)CCC[C@H](N)C(=O)N[C@@H](CC1CCCCC1)C(=O)Nc1cnc2ccccc2c1.Cl.Cl.Cl.Cl.[Cl-]` [Compound 25, 3-[(2S)-2-[(4S)-1-N,1-N-bis(2-azaniumylethyl)-4-formamido-1-N-methylbutane-1,4-bis(aminium)]-3-cyclohexylpropanamido]quinolin-1-ium pentachloride], the clearance in series [2] (setting [4]) was 16.7 mL/min/kg. Besides, in series [2] (setting [5]), the Cmax worked out at 13000 ng/mL.

On to `C[N+](CCN)(CCN)CCC[C@H](N)C(=O)N[C@H](CCc1ccccc1)C(=O)Nc1cnc2ccccc2c1` [Compound 27, 3-[(2R)-2-[(4S)-1-N,1-N-bis(2-azaniumylethyl)-4-formamido-1-N-methylbutane-1,4-bis(aminium)]-4-phenylbutanamido]quinolin-1-ium pentachloride], for which, in series [2] (setting [3]), the clearance is 5.83 mL/min/kg. Further, the Cmax in series [2] (setting [6]) turned out to be 54600 ng/mL. Moreover, the “serum PK profile (in words)” value in series [2] (setting [7]) was “best serum PK profiles”.

In the case of `C[N+](CCN)(CCN)CCC[C@H](N)C(=O)N[C@@H](CCc1ccccc1)C(=O)Nc1cnc2ccccc2c1.Cl.Cl.[Cl-]` [Compound 29, 3-[(2S)-2-[(4S)-1-N,1-N-bis(2-azaniumylethyl)-4-formamido-1-N-methylbutane-1,4-bis(aminium)]-4-phenylbutanamido]quinolin-1-ium pentachloride], the clearance in series [2] (setting [4]) is 14.2 mL/min/kg. Also, in series [2] (setting [5]), the Cmax was found to be 25600 ng/mL.

As to `C[N+](CCN)(CCN)CCC[C@H](N)C(=O)N[C@H](CCc1ccc(C(F)(F)F)cc1)C(=O)Nc1cnc2ccccc2c1` [Compound 33, 3-[(2R)-2-[(4S)-1-N,1-N-bis(2-azaniumylethyl)-4-formamido-1-N-methylbutane-1,4-bis(aminium)]-4-[4-(trifluoromethyl)phenyl]butanamido]quinolin-1-ium pentachloride], the clearance in series [2] (setting [3]) was 16.7 mL/min/kg. Moreover, the Cmax in series [2] (setting [6]) came to 63000 ng/mL.

With `C[C@@H](N)C(=O)N[C@@H](CCC[N+](C)(CCN)CCN)C(=O)N[C@@H](Cc1ccc(C(F)(F)F)cc1)C(=O)Nc1cnc2ccccc2c1` [Compound 44, 3-[(2S)-2-[(4S)—N,N-bis(2-azaniumylethyl)-4-formamido-4-[(1R)-1-formamidoethan-1-aminium]-N-methylbutan-1-aminium]-3-[4-(trifluoromethyl)phenyl]propanamido]quinolin-1-ium pentachloride], in series [2] (setting [3]), the clearance was 10.8 mL/min/kg. In addition, the Cmax in series [2] (setting [6]) is 40200 ng/mL. Further, the “serum PK profile (in words)” value in series [2] (setting [7]) is listed as “best serum PK profiles”.

In the case of “Mixture of 3-[(2S,3R)-2-[(4S)-1-N,1-N-bis(2-azaniumylethyl)-4-formamido-1-N-methylbutane-1,4-bis(aminium)]-3-hydroxy-3-[4-(trifluoromethyl)phenyl]propanamido]quinolin-1-ium pentachloride 15a and 3-[(2R,3S)-2-[(4S)-1-N,1-N-bis(2-azaniumylethyl)-4-formamido-1-N-methylbutane-1,4-bis(aminium)]-3-hydroxy-3-[4-(trifluoromethyl)phenyl]propanamido]quinolin-1-ium pentachloride 15b [Compound 15]”, in series [1], the MPC8 was determined as 0.312 µg/mL and the MPC32 was 0.625 µg/mL.
